Test results reported in ChEMBL document CHEMBL2412969, “Antihyperglycemic and antihyperlipidemic activities of 2-(4-[(2-hydroxybenzyl) amino]-phenyl amino-methyl)-phenol in STZ induced diabetic rats” (Eur J Med Chem, 2013).
Calls of active or inactive are those of the source. The rule behind the calls is not given here.

Tests used:
Rattus norvegicus [1] = experiment: Hypoglycemic activity in Wistar albino rat assessed as reduction of blood glucose level at 30 mg/kg, po after 5 hrs (reference value: 73.8 +/- 4.5 mg/dl); format: ADME, organism-based; parameters: dose 30 mg/kg, route oral; conditions: in vivo
Rattus norvegicus [2] = experiment: Antihyperglycemic activity in glucose loaded Wistar albino rat streptozotocin-induced diabetic model assessed as reduction of blood glucose level at 30 mg/kg, po after 3 hrs by oral glucose tolerance test; format: functional; parameters: scale not given: the % may be the effect or the level left
Rattus norvegicus [3] = experiment: Hypoglycemic activity in Wistar albino rat assessed as reduction of blood glucose level at 30 mg/kg, po after 6 hrs (reference value: 73.3 +/- 4.4 mg/dl); format: ADME, organism-based; parameters: dose 30 mg/kg, route oral; conditions: in vivo
Rattus norvegicus [4] = experiment: Antiatherosclerosis activity in Wistar albino rat streptozotocin-induced diabetic model assessed as protection from atherogenicity at 30 mg/kg, po qd for 30 days relative to control; format: functional
Rattus norvegicus [5] = experiment: Hepatotoxicity in Wistar albino rat assessed as AST, ALT and ALP level in serum at 30 mg/kg, po qd for 30 days; format: toxicity, organism-based; parameters: dose 30 mg/kg, route oral; conditions: in vivo, 720 h
Rattus norvegicus [6] = experiment: Antihyperlipidemic activity in Wistar albino rat streptozotocin-induced diabetic model assessed as reduction of serum LDL level at 30 mg/kg, po qd for 30 days; format: functional, organism-based; parameters: dose 30 mg/kg
Rattus norvegicus [7] = experiment: Hypoglycemic activity in Wistar albino rat assessed as reduction of blood glucose level at 60 mg/kg, po after 1 hr (reference value: 71.26 +/- 4.3 mg/dl); format: ADME, organism-based; parameters: dose 60 mg/kg, route oral; conditions: in vivo
Rattus norvegicus [8] = experiment: Antihyperglycemic activity in glucose loaded Wistar albino rat streptozotocin-induced diabetic model assessed as reduction of blood glucose level at 30 mg/kg, po after 1 hr by oral glucose tolerance test; format: functional, organism-based; parameters: dose 30 mg/kg
Rattus norvegicus [9] = experiment: Hypoglycemic activity in Wistar albino rat assessed as reduction of blood glucose level at 60 mg/kg, po after 6 hrs (reference value: 73.3 +/- 4.4 mg/dl); format: ADME, organism-based; parameters: dose 60 mg/kg, route oral; conditions: in vivo
Rattus norvegicus [10] = experiment: Hypoglycemic activity in Wistar albino rat assessed as reduction of blood glucose level at 20 mg/kg, po after 6 hrs (reference value: 73.3 +/- 4.4 mg/dl); format: ADME, organism-based; parameters: dose 20 mg/kg, route oral; conditions: in vivo
Rattus norvegicus [11] = experiment: Antihyperlipidemic activity in Wistar albino rat streptozotocin-induced diabetic model assessed as reduction of serum VLDL-cholesterol level at 30 mg/kg, po qd for 30 days; format: functional, organism-based; parameters: dose 30 mg/kg
Rattus norvegicus [12] = experiment: Antihyperglycemic activity in Wistar albino rat streptozotocin-induced diabetic model assessed as reduction of blood glucose level at 30 mg/kg, po after 5 hrs (reference value: 372.2 +/- 16.6 mg/dl); format: functional
Rattus norvegicus [13] = experiment: Renaltoxicity in Wistar albino rat assessed as urea level in blood at 30 mg/kg, po qd for 30 days; format: organism-based; parameters: dose 30 mg/kg, route oral; conditions: in vivo, 720 h
Rattus norvegicus [14] = experiment: Antihyperglycemic activity in Wistar albino rat streptozotocin-induced diabetic model assessed as reduction of blood glucose level at 20 mg/kg, po after 3 hrs (reference value: 384.33 +/- 17.33 mg/dl); format: functional
Rattus norvegicus [15] = experiment: Renalprotective activity in Wistar albino rat assessed as protection against streptozotocin-induced increase in creatinine level in blood at 30 mg/kg, po qd for 30 days; format: functional
Rattus norvegicus [16] = experiment: Antihyperglycemic activity in Wistar albino rat streptozotocin-induced diabetic model assessed as reduction of blood glucose level at 30 mg/kg, po after 3 hrs (reference value: 384.33 +/- 17.33 mg/dl); format: functional
Rattus norvegicus [17] = experiment: Antihyperglycemic activity in Wistar albino rat streptozotocin-induced diabetic model assessed as reduction of blood glucose level at 60 mg/kg, po after 3 hrs (reference value: 384.33 +/- 17.33 mg/dl); format: functional
Rattus norvegicus [18] = experiment: Hypoglycemic activity in Wistar albino rat assessed as reduction of fasting blood glucose level at 30 mg/kg, po qd measured on day 1 (reference value: 89 +/- 6.4 mg/dl); format: ADME, organism-based; parameters: dose 30 mg/kg, route oral; conditions: in vivo
Rattus norvegicus [19] = experiment: Antiatherosclerosis activity in Wistar albino rat assessed as protection from atherogenicity at 30 mg/kg, po qd for 30 days relative to control; format: functional
Rattus norvegicus [20] = experiment: Hypoglycemic activity in Wistar albino rat assessed as reduction of blood glucose level at 20 mg/kg, po after 5 hrs (reference value: 73.8 +/- 4.5 mg/dl); format: ADME, organism-based; parameters: dose 20 mg/kg, route oral; conditions: in vivo
Rattus norvegicus [21] = experiment: Hypoglycemic activity in Wistar albino rat assessed as reduction of blood glucose level at 60 mg/kg, po after 4 hrs (reference value: 75.8 +/- 4.7 mg/dl); format: ADME, organism-based; parameters: dose 60 mg/kg, route oral; conditions: in vivo
Rattus norvegicus [22] = experiment: Antihyperglycemic activity in Wistar albino rat streptozotocin-induced diabetic model assessed as reduction of fasting blood glucose level at 30 mg/kg, po qd measured on day 1 (reference value: 416.4 +/- 24.2 mg/dl); format: functional
Rattus norvegicus [23] = experiment: Hypoglycemic activity in Wistar albino rat assessed as reduction of fasting blood glucose level at 30 mg/kg, po qd measured on day 15 (reference value: 82.66 +/- 6.05 mg/dl); format: ADME, organism-based; parameters: dose 30 mg/kg, route oral; conditions: in vivo
Rattus norvegicus [24] = experiment: Hypoglycemic activity in Wistar albino rat assessed as reduction of blood glucose level at 30 mg/kg, po after 4 hrs (reference value: 75.8 +/- 4.7 mg/dl); format: ADME, organism-based; parameters: dose 30 mg/kg, route oral; conditions: in vivo
Rattus norvegicus [25] = experiment: Hypoglycemic activity in Wistar albino rat assessed as reduction of blood glucose level at 30 mg/kg, po after 2 hrs (reference value: 76.5 +/- 3.7 mg/dl); format: ADME, organism-based; parameters: dose 30 mg/kg, route oral; conditions: in vivo

Activity (Rattus norvegicus [1]): 72.8 mg/dL | Activity (Rattus norvegicus [3]): 72.5 mg/dL | Activity (Rattus norvegicus [7]): 75.7 mg/dL | Activity (Rattus norvegicus [9]): 75 mg/dL | Activity (Rattus norvegicus [10]): 70 mg/dL | Activity (Rattus norvegicus [18]): 90.6 mg/dL | Activity (Rattus norvegicus [20]): 70.1 mg/dL | Activity (Rattus norvegicus [21]): 79.3 mg/dL | Activity (Rattus norvegicus [23]): 80.66 mg/dL | Activity (Rattus norvegicus [24]): 73.16 mg/dL | Activity (Rattus norvegicus [25]): 73.66 mg/dL
SMILES: Oc1ccccc1CNc1ccc(NCc2ccccc2O)cc1
Activity (Rattus norvegicus [2]): 56% | Activity (Rattus norvegicus [4]): 66.8% | Activity (Rattus norvegicus [5]): Non-toxic | Activity (Rattus norvegicus [6]): Active | Activity (Rattus norvegicus [8]): Active | Activity (Rattus norvegicus [11]): Active | Activity (Rattus norvegicus [12]): 172.8 mg/dL | Activity (Rattus norvegicus [13]): 43.25 mg/dL | Activity (Rattus norvegicus [14]): 301.3 mg/dL | Activity (Rattus norvegicus [15]): 0.462 mg/dL | Activity (Rattus norvegicus [16]): 248.8 mg/dL | Activity (Rattus norvegicus [17]): 61.4 mg/dL | Activity (Rattus norvegicus [19]): 70.1% | Activity (Rattus norvegicus [22]): 333 mg/dL
